# Measured values taken from patent US12065470B2, “Zinc-charged peptides for the treatment of cancer and alzheimer's disease” (priority 2022, dated 2024).
# Starred links: 1 amine or outer side, 2 acyl side, 3 side chain; linkers in the order of their positions; H or OH if unused. Positions of bridges follow the written chain, without caps; N, C: chain ends. Non-standard residues stand in square brackets, D forms with d. Residues, ends and D or L forms follow the SMILES beside them. Chains are numbered I, II in the order given. No end group written: not given here. Actinocin(9to1) = Cc1c2oc3c(C)ccc(C(=O)[*:1])c3nc-2c(C(=O)[*:2])c(N)c1=O; NMeV = CN[C@H](C(=O)O)C(C)C; Sar = CNCC(=O)O
# Legend:
# [1] = tested on: various cancer cell lines; test: Apoptosis-inducing activity on various cancer cell lines (earlier work); type: cell-based
# Source text: Cow milk is known to contain numerous proteins and other beneficial compounds for humans.
# (§1) Since alpha-lactalbumin is the major milk protein present in milk, this protein was first tested to determine if the bioactive peptides were derived from alpha-Lactalbumin. Purified alpha-lactalbumin was therefore treated with EDTA and zinc acetate.
# [2] = Absorption by gastrointestinal tract (earlier work); conditions: before digestion with papain
# Source text: as §1
# HT-29 colon cancer cells [3] = test: Combination with chemotherapy drugs, apoptosis in HT-29; type: cell-based; conditions: for interaction of chemotherapy drug with zinc-charged peptide (apoptosis): drug 6 μg per ml 12 hours, then zinc-charged 4H 4 μM for 6 hours, HT-29
# Protocol: To test this, HT-29 colon cancer cells were pre-incubated with various chemotherapy drugs at 6 μg per ml for 12 hours, then zinc-charged 4H at 4 μM was added for an additional 6 hours. Most chemotherapy drugs take up to 48 hours to see substantial apoptosis, and as such, the cells were pre-incubated with chemotherapy drugs first. The chemotherapy drugs tested included actinomycin (“A”), carmustine (“C”), docorubicin (“Dox”), genistin (“G”), 5-FU, and Tarceva.
# [4] = tested on: normal colon cell line CCD18Co; test: Glycolysis (lactate) in CCD18Co cell lysate; type: cell-based; conditions: FIG. 8a
# Protocol: (§2) FIG. 8a is a bar graph depicting the level of glycolysis end product lactate in HT-29 colon cancer cell lysate and of normal CCD18Co colon cell lysate after incubation with zinc-charged peptide 4H compared to a control of unincubated HT-29 cancer cell lysate and unincubated normal CCD18Co colon cell lysate.
# (§3) The zinc-charged peptides ability to inhibit glycolysis in other cancer cell lines, such as lung cancer, compared to their normal counterparts was also tested. […] To further study this observed phenomena in vivo, normal mice were fed with the zinc-charged 4H for five days, and the glycolysis of normal brain cells were studied. FIG. 9 depicts the results of this study. For this study, two groups of mice having four mice per group were compared, one being the control and the other being fed 0.5 mg of zinc-charged 4H per mouse per day for 5 days orally. After 5 days, brain and muscle tissue was collected, homogenized, and assayed for glycolysis rate.
# HT-29 colon cancer cells [5] = test: Glycolysis (lactate) in HT-29 cell lysate; type: cell-based
# Protocol: (§4) To determine the mechanism of induction of apoptosis to HT-29 cancer cells by the zinc-charged peptides, a low concentration (1 μM) of zinc-charged 4H was incubated with HT-29 cancer cells, followed by biochemical analysis of the cell lysate of the HT-29 cancer cells.
# (§5) Furthermore, the decreased lactate was associated with a lower ATP level and a lower Glucose-6-phosphate (G-6-P) level in HT-29 cells.
# as §3
# hexokinase II [6] = molecular target: T1, hexokinase II (Homo sapiens, UniProt P52789); test: Subcellular hexokinase II activity in HT-29; type: cell-based; conditions: HT-29, 1 μM, 5 hours
# T1 sequence (P52789 1-917): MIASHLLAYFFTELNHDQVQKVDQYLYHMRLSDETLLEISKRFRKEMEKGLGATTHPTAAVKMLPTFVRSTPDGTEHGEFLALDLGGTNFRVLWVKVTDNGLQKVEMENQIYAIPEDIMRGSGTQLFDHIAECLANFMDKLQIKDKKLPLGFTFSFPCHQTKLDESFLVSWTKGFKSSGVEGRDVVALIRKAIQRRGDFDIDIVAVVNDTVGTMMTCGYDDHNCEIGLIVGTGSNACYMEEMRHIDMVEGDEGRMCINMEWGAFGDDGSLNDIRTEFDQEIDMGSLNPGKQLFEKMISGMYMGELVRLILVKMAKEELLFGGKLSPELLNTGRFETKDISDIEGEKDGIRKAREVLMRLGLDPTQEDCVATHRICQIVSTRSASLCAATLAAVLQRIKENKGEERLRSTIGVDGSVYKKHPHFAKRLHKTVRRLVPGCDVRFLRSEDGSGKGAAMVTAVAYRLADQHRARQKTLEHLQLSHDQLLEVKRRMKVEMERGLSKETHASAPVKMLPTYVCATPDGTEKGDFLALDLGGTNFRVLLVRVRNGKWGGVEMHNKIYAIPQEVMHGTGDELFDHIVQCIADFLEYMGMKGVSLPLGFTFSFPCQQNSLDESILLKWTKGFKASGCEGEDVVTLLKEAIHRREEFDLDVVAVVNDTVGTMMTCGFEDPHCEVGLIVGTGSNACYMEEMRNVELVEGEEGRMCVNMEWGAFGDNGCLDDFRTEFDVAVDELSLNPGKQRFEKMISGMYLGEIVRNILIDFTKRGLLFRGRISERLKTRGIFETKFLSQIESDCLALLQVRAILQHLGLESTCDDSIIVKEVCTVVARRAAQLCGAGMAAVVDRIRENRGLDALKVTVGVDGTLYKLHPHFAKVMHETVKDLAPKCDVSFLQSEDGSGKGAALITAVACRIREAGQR
# Protocol: FIG. 14 is a bar graph depicting the subcellular hexokinase II activity in mitochondria, cytosol, and microsome of HT-29 cells incubated with the zinc-charged peptide (4H, 1 μM, for 5 hours) compared to a control of only the vehicle.
# FIGS. 14-16 depicts the testing results validating that the zinc-charged peptides inhibit each of these three bioenergetic pathways. FIG. 14 depicts the subcellular hexokinase II activity in mitochondria, cytosol, and microsome to determine whether the zinc-charged peptides inhibit the hexokinase II activity in mitochondria. For this test, HT-29 cancer cells were incubated with zinc-charged 4H at 1 μM for 5 hours. After incubation, sub-cellular fractions including cytosol, microsome, and mitochondria were prepared and the hexokinase II activity on these sub-cellular fractions were tested.
# muscle tissue glycolysis = test: Muscle glycolysis in normal mice after oral dosing; type: in vivo; conditions: 0.5 mg per mouse per day, 5 days
# Protocol: FIG. 9b is a bar graph depicting the level of glycolysis in the muscle tissue of normal mice after the mice were orally administered the zinc-charged peptide (4H, 0.5 mg/mouse) for five days compared to a control.
# as §3
# (§6) In mice fed with 0.5 mg of zinc-charged 4H for 5 days, the brain glycolysis of these mice was enhanced by 44%.
# brain ATP = test: Brain ATP level in mice after oral dosing; type: in vivo; conditions: 4H 0.5 mg per mouse per day, 5 days, normal mice
# Protocol: FIG. 10 is a bar graph depicting the brain ATP level of normal mice after the mice were orally administered the zinc-charged peptide (4H, 0.5 mg/mouse) for five days compared to a control.
# FIG. 11a is a bar graph depicting the brain ATP level of mice after the mice were orally administered the zinc-charged peptide (4H3, 1 mg/mouse) for five days compared to a control.
# as §6
# FIGS. 11a-d provide the graphical representations of these observations. FIG. 11a depicts the level of brain ATP in mice that were orally administered zinc-charged 4H3 compared to mice who were given the control. […] FIG. 11b depicts the level of brain Tau protein ATP in mice that were orally administered zinc-charged 4H3 compared to mice who were given the control. In this test, a 2.7 μg protein load was utilized. […] FIG. 11c depicts a retest of FIG. 11b, but with a lower protein load utilized instead. […] Lastly, FIG. 11d depicts the brain P38 MAPK levels in mice that were orally administered zinc-charged 4H3 compared to mice who were given the control. In this test, the mice given the zinc-charged 4H3 saw their brain P38 MAPK levels decrease by 61%.
# HT-29 cancer cells = test: Intracellular glucose-6-phosphate in HT-29; type: cell-based; conditions: HT-29, 6 hours of incubation
# Protocol: FIG. 6 is a bar graph depicting the level of intracellular Glucose-6-phosphate in HT-29 cancer cells after being incubated with the zinc-charged peptide 4H compared with a control.
# as §4, §5
# brain tissue glycolysis = test: Brain glycolysis in normal mice after oral dosing; type: in vivo; conditions: 0.5 mg per mouse per day, 5 days
# Protocol: FIG. 9a is a bar graph depicting the level of glycolysis in the brain tissue of normal mice (N=4) after the mice were orally administered the zinc-charged peptide (4H, 0.5 mg/mouse) for five days compared to a control.
# as §3, §6
# normal WI38 lung cells = test: Glycolysis (lactate) in WI38 cell lysate; type: cell-based; conditions: WI38, FIG. 8b
# Protocol: as §2, with “8b” for “8a”, “Calu-1 lung” for “HT-29 colon”, “WI38 lung” for “CCD18Co colon”, “Calu-1 lung” for “HT-29”
# as §3
# Calu-1 lung cancer cells = test: Glycolysis (lactate) in Calu-1 cell lysate; type: cell-based; conditions: Calu-1, FIG. 8b
# Protocol: as §2, with “8b” for “8a”, “Calu-1 lung” for “HT-29 colon”, “WI38 lung” for “CCD18Co colon”, “Calu-1 lung” for “HT-29”
# as §3
# hexokinase II [7] = molecular target: T1, hexokinase II; test: In vitro hexokinase II assay; type: biochemical
# Protocol: To test confirm that the zinc-charged peptides inhibit hexokinase II resulting in the inhibition of glycolysis, an in vitro hexokinase II assay was performed. FIG. 7 depicts the results of the in vitro hexokinase II assay. In this test, it was observed that hexokinase II was inhibited by zinc-charged 4H in a dose-dependent manner. […] These findings confirm that the zinc-charged peptides inhibit glycolysis at the hexokinase II enzyme level.
# [8] = Water solubility of the peptide; type: physicochemical; conditions: uncharged peptide
# Source text: The first peptide, listed as SEQ. ID NO. 1 in the accompanying sequence listing, has an amino acid sequence of E-Y-G-L-F-Q-I-S-N-K-L. This peptide, which is derived from natural human alpha-lactalbumin, will be referred to herein as “4H.” The second peptide, listed as SEQ. ID NO. […] This peptide has an amino acid sequence of E-Y-G-L-F-Q-I-S-N-K-K and will be referred to herein as “4H3.” Both these peptides were charged with zinc ions using the disclosed method to activate their apoptotic activities. Further, once these two peptides were charged with zinc ions, additional effects such as reducing Tau protein, increasing brain ATP levels and inhibiting P38 in the brain were observed, showing that these zinc-charged peptides further have a role in treating diseases involving tauopathy, such as Alzheimer's Disease and Parkinson's Disease.
# Disclosed herein are two zinc-charged chemically synthesized peptides based upon the alpha-lactalbumin that are able to treat cancer and diseases involving tauopathy once activated by the disclosed method of charging the peptides with zinc ions. The first peptide, 4H, has an amino acid sequence of E-Y-G-L-F-Q-I-S-N-K-L (Seq. No. 1). The second peptide, 4H3, has an amino acid sequence of E-Y-G-L-F-Q-I-S-N-K-K (Seq. No. 2). […]
compound,measurement,setting,value
zinc-bound alpha-lactalbumin: purified alpha-lactalbumin treated with EDTA and zinc acetate,apoptosis-inducing activity,[1],contain apoptosis-inducing activity
same,absorption by gastrointestinal tract,[2],unable to be absorbed
O=c1c(-c2ccc(O)cc2)coc2cc(O[C@@H]3O[C@H](CO)[C@@H](O)[C@H](O)[C@H]3O)cc(O)c12 [genistin],interaction of chemotherapy drug with zinc-charged peptide (apoptosis),HT-29 colon cancer cells [3],synergistic
"E-Y-G-L-F-Q-I-S-N-K-L (EYGLFQISNKL; also: charged with zinc ions) [zinc-charged 4H, ID NO; 1 peptide derived from human alpha-lactalbumin, charged with zinc ions]",glycolysis inhibited,[4],10.5%
same,lactate lower than control cells,"HT-29 colon cancer cells [5]; 1 μM, HT-29 lysate, FIG. 4",81.4%
same,glycolysis inhibited,"HT-29 colon cancer cells [5]; HT-29, FIG. 8a",up to 34.7%
same,percentage of apoptosis in HT-29 after adding zinc-charged 4H to chemotherapy drugs,HT-29 colon cancer cells [3]; 4 μM for 6 hours after 12 hours drug pre-incubation,significantly increased
same,mitochondria associated hexokinase II activity inhibited,hexokinase II [6],53%
same,muscle glycolysis increased,muscle tissue glycolysis,15%
same,increase in brain ATP level,brain ATP,31.4%
same,reduction of intracellular G-6-P level,HT-29 cancer cells,39.6%
same,brain glycolysis enhanced,brain tissue glycolysis,44%
same,glycolysis inhibition,normal WI38 lung cells,0%
same,glycolysis inhibited,Calu-1 lung cancer cells,11.1%
same,hexokinase II inhibited,hexokinase II [7]; 5 μM,28.6%
same,hexokinase II inhibited,hexokinase II [7]; 10 μM,79.1%
same,hexokinase II inhibited,hexokinase II [7]; 20 µM,94.6%
"Cc1c2oc3c(C)ccc(C(=O)N[C@@H]4C(=O)N[C@H](C(C)C)C(=O)N5CCC[C@H]5C(=O)N(C)CC(=O)N(C)[C@@H](C(C)C)C(=O)O[C@@H]4C)c3nc-2c(C(=O)N[C@@H]2C(=O)N[C@H](C(C)C)C(=O)N3CCC[C@H]3C(=O)N(C)CC(=O)N(C)[C@@H](C(C)C)C(=O)O[C@@H]2C)c(N)c1=O [actinomycin] (I: T[dV]P[Sar][NMeV] / II: T[dV]P[Sar][NMeV]; ester I:1-I:C, II:1-II:C; linker I:N-II:N via Actinocin(9to1))",interaction of chemotherapy drug with zinc-charged peptide (apoptosis),HT-29 colon cancer cells [3],synergistic
COc1cccc2c1C(=O)c1c(O)c3c(c(O)c1C2=O)C[C@@](O)(C(=O)CO)C[C@@H]3O[C@H]1C[C@H](N)[C@H](O)[C@H](C)O1 [doxorubicin],interaction of chemotherapy drug with zinc-charged peptide (apoptosis),HT-29 colon cancer cells [3],synergistic
"EYGLFQISNKK [4H3, E-Y-G-L-F-Q-I-S-N-K-K]",water solubility compared with 4H,[8],more water-soluble
O=NN(CCCl)C(=O)NCCCl [carmustine],interaction of chemotherapy drug with zinc-charged peptide (apoptosis),HT-29 colon cancer cells [3],synergistic
O=c1[nH]cc(F)c(=O)[nH]1 [5-FU],interaction of chemotherapy drug with zinc-charged peptide (apoptosis),HT-29 colon cancer cells [3],synergistic
